# Measured values taken from US10736968B2, “Cellular signalling inhibitors, their formulations and methods thereof” (INVICTUS ONCOLOGY PVT. LTD., priority 2016, dated 2020).
# System: macrophages
# Experiment: Repolarization of IL4-skewed M2 macrophages to M1-like state after washout (FACS)
# Type: cell-based
# Details: IL4 24 hours, inhibitor 4 hours, washed, fresh media 12-72 hours
# Experimental: Activity Studies of Compound of Formula I • Efficacy of BLN101 vs BLZ945 on the ability to inhibit CSF1R in vitro is studied. RAW264.7 cells are treated with BLZ945 (67 nM) or BLN101 (67 nM) for different time points, at the end of which the cells were exposed to CSF1 (10 ng/ml) for 20 min. The cells were then lysed and analyzed for phosphorylated CSF1R levels. […] Efficacy of BLN101 (in formulation AK750) vs BLZ945 on increase in iNOS expression in vitro is studied. It is observed that exposure to Tumor Conditioned Media over 24 h decreases INOS levels. Measurement of the expression of iNOS in RAW264.7 cells at different time points after treatment with B-16-tumour conditioned media followed by BLZ-945 or BLN101 (as AK750 formulation) treatment across different time points. […] Treatment of monocytes with IL4 is known to facilitate the differentiation of monocytes into macrophages. Further, activation of CSF1R skews it to a M2 phenotype. […] At different time points analysis of the cells for expression of markers CD11b+CD206+, CD11b+MHC-II+, CD11b+CD86+ and CD11b+CD80+ on the cells using flow cytometry. […] (FIG. 4). […] At different time-points, the cells are harvested and analyzed the population for M1 (MHCII+, CD86+, CD80+) or M2 (CD206+) markers using fluorescence activated cell sorting (FIG. 5d). […]
smiles,measurement,value
CNC(=O)c1cc(Oc2ccc3nc(N[C@@H]4CCCC[C@H]4O)sc3c2)ccn1 [BLZ-945],"M1 markers (MHCII+, CD86+, CD80+)",did not increase the M1 markers
same,M2 phenotype (CD206+),"at early time-points is observed, but this effect was lost at later time points"
